Assay results taken from patent US11987647B2, “Cyclic cell-penetrating peptides with one or more hydrophobic residues” (Ohio State Innovation Foundation, priority 2018, dated 2024).
The star is where a group is joined. Decanoyl = CCCCCCCCCC(=O)*

Experiments:
Type in all cases: cell-based
HeLa cells [1] = experiment: Cytosolic entry efficiency of NF-labelled peptides by flow cytometry; conditions: for Cellular Entry Efficiency In 10% FBS: 2 h, relative to CPP12 (100%)
Description: All of the peptides were labeled with naphthofluorescein (NF) at the Gln side chain through a long, flexible linker, miniPEG-Lys. HeLa cells were treated with 5 μM peptide for 2 h in the presence of 10% FBS and the cytosolic entry of the peptides was quantitated by flow cytometry analysis.
To determine cellular uptake efficiency of the CPPs disclosed herein, HeLa cells were cultured in 12-well plates (1.5×10^5 cells per well) overnight. The cells were incubated for 2 h with […] naphthofluorescein (NF)-labelled peptide in cellular media. At the end of incubation, the cells were washed with DPBS twice, detached from the plate with 0.25% trypsin, diluted into clear DMEM, pelleted at 250 g for 5 min, washed twice with DPBS, resuspended in DPBS, and analyzed on a BD FACS LSR II flow cytometer. For NF-labelled peptides, a 633-nm laser was used for excitation and the fluorescence emission was analyzed in the APC channel. Absolute cellular uptake efficiency was determined by comparing the concentration (via fluorescence intensity) of the CPP in the cytosol to the concentration in the extracellular medium. Relative cellular uptake efficiency was determined by comparing the cytosolic concentration of the CPP to that cytosolic concentration of the control CPP cyclo(FΦRRRRQ).

HeLa cells [2] = experiment: Cytotoxicity by the MTT assay; conditions: no label, up to 40 μM concentration
Description: CPP1-15 (no label) was used as a representative and tested against HeLa cells for potential cytotoxicity by the MTT assay.

HeLa cells [3] = experiment: Cellular entry by live-cell confocal imaging of FITC-labelled peptides; conditions: 5 μM FITC-labelled peptide, 2 h
Description: CPP1-15 and CPP1-20 were labeled with FITC via a miniPEG-Lys linker. HeLa cells were treated with 5 μM peptide for 2 h, washed, and imaged by live-cell confocal imaging. […] Additional experiments are ongoing to further examine their mechanism of cell entry.

HeLa cells [4] = experiment: Cytosolic entry efficiency of NF-labelled peptides by flow cytometry; conditions: for Cellular Entry Efficiency In 1% FBS: relative to CPP12 (100%)

Q: “cyclo(Lys^DecaRRRRQ) (cyclo(K(Decanoyl)RRRRQ); SMILES CCCCCCCCCC(=O)NCCCC[C@@H]1NC(=O)[C@H](CCC(N)=O)NC(=O)[C@H](CCCNC(=N)N)NC(=O)[C@H](CCCNC(=N)N)NC(=O)[C@H](CCCNC(=N)N)NC(=O)[C@H](CCCNC(=N)N)NC1=O) [CPP1-15]” was tested. Which “sensitivity to serum concentration” value (HeLa cells [1]; 10% vs 1% FBS, compared with CPP9 or CPP12) did it give?
A: The value was “lower sensitivity to serum concentration”.

Q: And the “Cellular Entry Efficiency In 10% FBS” value (HeLa cells [1]; Table 4, 5 μM NF-labelled peptide)?
A: Its value is 76 ± 21%.

Q: What about the “Cellular Entry Efficiency In 10% FBS” value (HeLa cells [1]; Table 7, 5 μM NF-labelled peptide) of the same substance?
A: Its value is 76 ± 21%.

Q: And the “CPP activity compared with CPP1-4 (in words)” value (HeLa cells [1]; variant of CPP1-4)?
A: Its value is “slightly increased the CPP activity”.

Q: What about the cytotoxicity (HeLa cells [2]) of the same substance?
A: The cytotoxicity was “did not show significant cytotoxicity”.

Q: And the “cellular entry (confocal imaging)” value (HeLa cells [3])?
A: The value was “entered HeLa cells efficiently”.

Q: And the “Cellular Entry Efficiency In 1% FBS” value (HeLa cells [4]; Table 4, NF-labelled peptide)?
A: Its value is 44 ± 11%.

Q: And the “Cellular Entry Efficiency In 1% FBS” value (HeLa cells [4]; Table 7, NF-labelled peptide)?
A: The value was 44 ± 11%.

Q: What about the cytosolic entry efficiency (HeLa cells [4]; reduced serum concentration (1% FBS), CPP12 most active) of the same substance?
A: The cytosolic entry efficiency was 43%.
